The test system of data set [1] is Streptococcus pneumoniae. In words: Antibacterial activity against Streptococcus pneumoniae. In kind it is functional, organism-based.
Data set [2] can be described thus: Induction of Wistar rat mast cell lysis assessed as LDH release at 5 to 500 uM incubated for 5 mins in presence of NADH relative to control. In kind it is toxicity, cell-based. The settings on record: dose 5-500 µM. For orientation: LDH in the medium is a marker of cell lysis.
Data set [3] in a line: Induction of nociception in Swiss mouse at 2 ug, I.PL incubated for 60 mins by von frey test relative to control. In kind it is toxicity. The following applies: in vivo, other, 1 h.
Data set [4] has as its system Klebsiella aerogenes. In words: Antibacterial activity against Enterobacter aerogenes. In kind it is functional, organism-based.
Data set [5] concerns Escherichia coli. Nature of the data set: Antibacterial activity against Escherichia coli. In kind it is functional, organism-based.
A short description of data set [6]: Induction of edema formation in Swiss mouse at 2 ug, I.PL measured after 300 mins relative to control. The data set is classed as toxicity. The settings on record: in vivo, other, 5 h.
Data set [7] relates to Staphylococcus aureus. Nature of the data set: Antibacterial activity against Staphylococcus aureus. In kind it is functional, organism-based.
The nature of data set [8]: Effect on locomotory activity in Swiss mouse assessed as decrease in frequency at 2 ug, I.PL incubated for 3 to 15 mins by open field test relative to control. The data set is classed as toxicity. The following applies: in vivo, other, time 3-15 min. Further details: scale not given: the % may be the effect or the level left.
Data set [9] in a line: Induction of nociception in Swiss mouse at 2 ug, I.PL incubated for 300 mins by von frey test relative to control. The data set is classed as toxicity. The settings on record: in vivo, other, 5 h.
The test system of data set [10] is Erythrocyte. In words: (§1) Hemolytic activity in Wistar rat RBC at 5 to 500 uM incubated for 120 mins. The data set is classed as toxicity, cell-based. The following applies: erythrocyte, 2 h, 500 µM, dose 5-500 µM.
Data set [11] can be described thus: Effect on rearing activity in Swiss mouse assessed as increase in frequency at 2 ug, I.PL incubated for 3 to 15 mins by open field test relative to control. The data set is classed as toxicity. The settings on record: in vivo, other, time 3-15 min.
Data set [12] in a line: Induction of edema formation in Swiss mouse at 2 ug, I.PL measured after 180 mins relative to control. The data set is classed as toxicity. The settings on record: in vivo, other, 3 h.
A short description of data set [13]: Induction of edema formation in Swiss mouse at 2 ug, I.PL measured after 60 mins relative to control. The data set is classed as toxicity. The following applies: in vivo, other, 1 h.
The nature of data set [14]: Induction of Wistar rat mast cell degranulation assessed as beta-D-glusosaminidase release at 5 to 500 uM incubated for 15 mins relative to control. The data set is classed as toxicity, cell-based. The settings on record: 0.25 h, dose 5-500 µM.
The nature of data set [15]: Induction of nociception in Swiss mouse at 2 ug, I.PL incubated for 180 mins by von frey test relative to control. In kind it is toxicity. The settings on record: in vivo, other, 3 h.
Data set [16] in a line: as §1. The data set is classed as toxicity, cell-based, Erythrocyte. The settings on record: Wistar, red blood cells (erythrocytes), dose 5-500 µM, read-out: Activity.

Active and inactive are the calls of the source. No cut-off for these calls is given here. Peptide text beside a SMILES is read from it. A value given as a limit tells only on which side of the number the result lay.

In the case of `CC(C)C[C@H](NC(=O)CNC(=O)CNC(=O)[C@H](Cc1c[nH]cn1)NC(=O)[C@H](CC(=O)O)NC(=O)CNC(=O)[C@H](CO)NC(=O)[C@H](CC(C)C)NC(=O)[C@H](CC(C)C)NC(=O)[C@H](C)NC(=O)[C@H](CC(=O)O)NC(=O)[C@H](CS)NC(=O)CN)C(=O)N[C@@H](CC(C)C)C(=O)N[C@@H](CO)C(=O)N[C@@H](C)C(=O)N[C@@H](CC(N)=O)C(=O)NCC(=O)N[C@@H](CS)C(=O)O` (H-GCDALLSGDHGGLLSANGC-OH), the outcome in [1], in [4], in [5] and in data set [7] was inactive. The Activity result in [2], in data set [3] (dose 2 µg), in data set [6] (dose 2 µg), in data set [8] (dose 2 µg), in data set [9] (dose 2 µg) and in [10] was “Non-Toxic” in each case. Moreover, the Activity entry in data set [11] (dose 2 µg), in [12] (dose 2 µg), in data set [13] (dose 2 µg), in data set [14] and in data set [15] (dose 2 µg) was “Non-Toxic” each time.

In the case of H-AEIDFSGIPEDIIKQI-OH, the result in data set [1], in data set [4], in data set [5] and in data set [7] was inactive. Also, the Activity result is recorded as “Non-Toxic” in [2]; 71% in [3] (at 2 µg); “Non-Toxic” in data set [6] (dose 2 µg); “<= 40%” in data set [8] (at 2 µg); 71% in data set [9] (at 2 µg); “Non-Toxic” in [10]. The Activity entry in data set [11] (at 2 µg) is reported as “<= 40%”; in data set [12] (dose 2 µg), “Non-Toxic”; in data set [13] (dose 2 µg), “Non-Toxic”; in [14], “Non-Toxic”; in data set [15] (at 2 µg), 71%.

H-DEGPKSDCKP-OH: the outcome in data set [1], in data set [4], in data set [5] and in [7] was inactive. For the same compound, the Activity entry is given as “Non-Toxic” in [2]; 71% in data set [3] (at 2 µg); 71% in data set [6] (at 2 µg); “Non-Toxic” in [8] (dose 2 µg); 71% in data set [9] (at 2 µg); 41% in [11] (at 2 µg). Also, the Activity in data set [12] (at 2 µg) is on record as 71%; in [13] (at 2 µg) it was 71%; in data set [14] it was “Non-Toxic”; in data set [15] (at 2 µg) it was 71%. For the same compound, the hemolysis at 2 h, up to 500 µM in data set [16] is at most 40%.

With H-GKGKEILGK-OH, the outcome in data set [1], in data set [4], in data set [5] and in [7] was inactive. Further, the Activity result in [2], in [3] (dose 2 µg), in data set [6] (dose 2 µg), in data set [8] (dose 2 µg), in [9] (dose 2 µg) and in [10] was “Non-Toxic” throughout. In addition, the Activity entry in data set [11] (dose 2 µg), in data set [12] (dose 2 µg), in [13] (dose 2 µg), in data set [14] and in data set [15] (dose 2 µg) was “Non-Toxic” in each case.

Consider H-GLREKHVQ-OH, for which the result in data set [1], in data set [4], in data set [5] and in [7] was inactive. In addition, the Activity entry in data set [2] was “Non-Toxic”; in data set [3] (dose 2 µg), “Non-Toxic”; in data set [6] (dose 2 µg), “Non-Toxic”; in data set [8] (at 2 µg), “<= 40%”; in [9] (dose 2 µg), “Non-Toxic”; in data set [10], “Non-Toxic”. Moreover, the Activity result in [11] (dose 2 µg), in data set [12] (dose 2 µg), in data set [13] (dose 2 µg), in data set [14] and in [15] (dose 2 µg) was “Non-Toxic” throughout.

H-ILPNDK-OH: the outcome in data set [1], in [4], in data set [5] and in [7] was inactive. Besides, the Activity entry in data set [2], in data set [3] (dose 2 µg), in [6] (dose 2 µg), in [8] (dose 2 µg), in data set [9] (dose 2 µg) and in [11] (dose 2 µg) was “Non-Toxic” in each case. Besides, the Activity result in data set [12] (dose 2 µg), in data set [13] (dose 2 µg), in data set [14] and in data set [15] (dose 2 µg) was “Non-Toxic” in each case. Also, the hemolysis at 2 h, up to 500 µM in data set [16] was at most 40%.

As to H-ILTGKLKCK-OH, the outcome in data set [1], in data set [4], in data set [5] and in data set [7] was inactive. In addition, the Activity entry is “Non-Toxic” in data set [2]; 41% in [3] (at 2 µg); “Non-Toxic” in data set [6] (dose 2 µg); “Non-Toxic” in [8] (dose 2 µg); 41% in [9] (at 2 µg); “Non-Toxic” in data set [10]. The Activity entry in data set [11] (dose 2 µg) is reported as “Non-Toxic”; in data set [12] (dose 2 µg), “Non-Toxic”; in data set [13] (at 2 µg) it was 71%; in [14], “Non-Toxic”; in data set [15] (at 2 µg), 41%.

H-KETNAKPPA-OH: the result in data set [1], in [4], in [5] and in [7] was inactive. In addition, the Activity entry was “Non-Toxic” in data set [2]; 41% in data set [3] (at 2 µg); “Non-Toxic” in data set [6] (dose 2 µg); “<= 40%” in [8] (at 2 µg); 71% in data set [9] (at 2 µg); “Non-Toxic” in data set [10]. The Activity result in data set [11] (at 2 µg) is given as “<= 40%”; in [12] (dose 2 µg) it was “Non-Toxic”; in [13] (dose 2 µg) it was “Non-Toxic”; in data set [14], “Non-Toxic”; in [15] (at 2 µg), 71%.

H-KHFGKDSNFPF-NH2: the outcome in data set [1], in [4], in data set [5] and in [7] was inactive. In addition, the Activity entry is “Non-Toxic” in [2]; “Non-Toxic” in data set [3] (dose 2 µg); “Non-Toxic” in [6] (dose 2 µg); “<= 40%” in data set [8] (at 2 µg); “Non-Toxic” in data set [9] (dose 2 µg); “Non-Toxic” in data set [10]. Further, the Activity entry in [11] (dose 2 µg), in [12] (dose 2 µg), in data set [13] (dose 2 µg), in data set [14] and in [15] (dose 2 µg) was “Non-Toxic” in each case.

In the case of H-KPVEPVG-OH, the outcome in [1], in data set [4], in data set [5] and in data set [7] was inactive. Moreover, the Activity result is on record as “Non-Toxic” in data set [2]; “<= 40%” in data set [3] (at 2 µg); “Non-Toxic” in data set [6] (dose 2 µg); “Non-Toxic” in [8] (dose 2 µg); “<= 40%” in data set [9] (at 2 µg); “Non-Toxic” in data set [10]. Moreover, the Activity in data set [11] (at 2 µg) is on record as 41%; in data set [12] (dose 2 µg) it was “Non-Toxic”; in data set [13] (dose 2 µg), “Non-Toxic”; in [14], “Non-Toxic”; in data set [15] (at 2 µg), “<= 40%”.

With H-SESNTCG-OH, the result in [1], in data set [4], in data set [5] and in [7] was inactive. Moreover, the Activity entry in data set [2] is recorded as “Non-Toxic”; in [3] (at 2 µg), “<= 40%”; in data set [6] (dose 2 µg), “Non-Toxic”; in data set [8] (dose 2 µg), “Non-Toxic”; in data set [9] (at 2 µg), “<= 40%”; in data set [10] it was “Non-Toxic”. Moreover, the Activity result is reported as “<= 40%” in data set [11] (at 2 µg); “Non-Toxic” in [12] (dose 2 µg); “Non-Toxic” in [13] (dose 2 µg); “Non-Toxic” in [14]; “<= 40%” in [15] (at 2 µg).

The values are drawn from ChEMBL document CHEMBL5344445, “Profiling the Linear Peptides of Venom from the Brazilian Scorpion Tityus serrulatus: Structural and Functional Characterization” (J Nat Prod, 2024).
